Source: publication PMC7970697, “Inhibition and Induction by Poziotinib of Different Rat Cytochrome P450 Enzymes In Vivo and in an In Vitro Cocktail Method” (Frontiers in Pharmacology, 2021)
Where two headings read alike, the source gives them in different places.

Tests used:
[1] = design: method as in He et al., 2019; Kim T. Y. et al., 2019; conditions: treatment, ref He et al., 2019, Kim T. Y. et al.; cited from earlier work
cyp2c11 [2] = target: T1, cyp2c11 (Rattus norvegicus, UniProt P08683); assay: Effect of poziotinib on cyp2c11 activity in rats (tolbutamide pharmacokinetics); assay type: in vivo, Sprague-Dawley rats; design: from tissue; host or cells: living male Sprague-Dawley rats (whole animal); conditions: poziotinib 5 mg/kg oral 7 days, tolbutamide probe
T1 sequence (P08683 1-500): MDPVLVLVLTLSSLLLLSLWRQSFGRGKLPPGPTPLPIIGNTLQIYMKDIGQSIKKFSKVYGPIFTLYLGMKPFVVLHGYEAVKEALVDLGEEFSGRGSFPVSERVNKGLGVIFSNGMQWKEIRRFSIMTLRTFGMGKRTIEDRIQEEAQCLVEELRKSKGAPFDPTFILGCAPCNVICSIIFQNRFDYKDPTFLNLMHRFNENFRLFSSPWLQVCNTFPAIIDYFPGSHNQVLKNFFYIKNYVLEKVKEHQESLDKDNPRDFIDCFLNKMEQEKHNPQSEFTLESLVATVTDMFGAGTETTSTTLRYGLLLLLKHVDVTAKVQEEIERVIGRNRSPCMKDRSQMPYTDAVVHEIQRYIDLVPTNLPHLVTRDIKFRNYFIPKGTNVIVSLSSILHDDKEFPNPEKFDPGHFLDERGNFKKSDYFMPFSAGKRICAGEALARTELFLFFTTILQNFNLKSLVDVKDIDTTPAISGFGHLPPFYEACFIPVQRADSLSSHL
Procedure: (§2) Twelve male Sprague-Dawley rats (230 ± 20 g) were randomly divided into treated and control groups, with 6 in each group. […] The supernatant was mixed with 200 μL of acetonitrile and 20 μL of 0.5 μg/ml diazepam (IS), vortexed for 30 s, centrifuged at 13,000 rpm for 5 min, and the supernatant was injected into the UPLC-MS/MS system for analysis.
(§3) Pharmacokinetic parameters were calculated using DAS software (Version 3.2.8). SPSS software (version 16.0; SPSS Inc., Chicago, IL, United States) was used to analyze the significance of differences between the main pharmacokinetic parameters. p < 0.05 was considered statistically significant. GraphPad (version 8.0; GraphPad Software Inc., San Diego, CA, United States) was used to calculate IC50 and plot the plasma concentration-time curves and inhibition plots (type of inhibition, time- and concentration-dependence).

cyp2d1 [3] = target: T2, cyp2d1 (Rattus norvegicus, UniProt P10633); assay: Effect of poziotinib on cyp2d1 activity in rats (dextromethorphan pharmacokinetics); assay type: in vivo, Sprague-Dawley rats; design: from tissue; host or cells: living male Sprague-Dawley rats (whole animal); conditions: poziotinib 5 mg/kg oral 7 days, dextromethorphan probe
T2 sequence (P10633 1-504): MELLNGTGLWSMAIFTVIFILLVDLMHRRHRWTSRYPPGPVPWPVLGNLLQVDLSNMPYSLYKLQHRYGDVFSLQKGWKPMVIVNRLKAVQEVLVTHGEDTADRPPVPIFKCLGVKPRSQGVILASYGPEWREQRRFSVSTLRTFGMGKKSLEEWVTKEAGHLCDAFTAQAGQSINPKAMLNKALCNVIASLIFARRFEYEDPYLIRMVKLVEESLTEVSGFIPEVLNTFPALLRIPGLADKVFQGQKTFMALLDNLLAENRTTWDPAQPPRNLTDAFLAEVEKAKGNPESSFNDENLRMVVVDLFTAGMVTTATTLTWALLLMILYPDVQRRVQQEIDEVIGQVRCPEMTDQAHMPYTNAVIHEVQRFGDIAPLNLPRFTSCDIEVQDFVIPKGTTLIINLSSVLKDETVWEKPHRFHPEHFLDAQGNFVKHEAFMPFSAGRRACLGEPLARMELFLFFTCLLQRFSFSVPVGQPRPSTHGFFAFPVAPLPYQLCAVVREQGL
Procedure: as §2, §3

cyp2c11 [4] = target: T1, cyp2c11; assay: Time- and concentration-dependent inhibition in RLMs, tolbutamide; assay type: in vitro ADME; design: from tissue; host or cells: rat liver microsomes, prepared in-house
Procedure: A mixture containing 1 mg/ml of RLMs, different concentrations of poziotinib (0, 2, 4, 8 and16 μM for 2b1; 0, 5, 10 20 and 40 μM for 2c11), and NADPH was pre-incubated at 37°C for 0, 5, 10, and 20 min; Methanol instead of poziotinib was performed as control. Then 20 μM bupropion or 100 μM tolbutamide was added and incubated at 37°C for 30 min. The reactions were carried out and analyzed in triplicate as described in 2.3.

cyp2e1 [5] = target: T3, cyp2e1 (Rattus norvegicus, UniProt P05182); assay: Cocktail method IC50 in rat liver microsomes, chlorzoxazone probe; assay type: in vitro ADME
T3 construct: To this cocktail, 1 mg/ml of RLMs; from tissue; host or cells: rat liver microsomes, prepared in-house
Procedure: (§1) The cocktail method was employed to analyze the effects of poziotinib on cyp1a2, cyp2b1, cyp2c11, cyp2d1, cyp2e1, and cyp3a1/2. […] Then half-maximal inhibitory concentration (IC50) of poziotinib was determined with all of the CYPs. […]. To this cocktail, 1 mg/ml of RLMs, 100 mM potassium phosphate buffer (pH 7.4), poziotinib (1, 2.5, 5, 10, 25, 50, or 100 μM) were added to obtain a final volume of 200 μL. After pre-incubation of this mixture for 5 min in a shaking water bath at 37°C, 1 mM NADPH was added to start the reaction. The reactions were allowed to proceed for 30 min, after which 200 μL of acetonitrile and 20 μL of IS were added to terminate the reactions. The mixtures were vortexed for 30 s and centrifuged again at 13,000 rpm for 5 min.

CYP3A4 and CYP2D6 = tested on: CYP3A4 and CYP2D6; design: method as in Kim et al., 2013; conditions: LC-MS/MS; ref Kim et al., 2013; cited from earlier work
cyp2e1 [6] = assay: Effect of poziotinib on cyp2e1 activity in rats (chlorzoxazone pharmacokinetics); assay type: in vivo, Sprague-Dawley rats; conditions: poziotinib 5 mg/kg oral 7 days, chlorzoxazone probe
Procedure: as §2, §3

cyp2d1 [7] = target: T2, cyp2d1; assay: Cocktail method IC50 in rat liver microsomes, dextromethorphan probe; assay type: in vitro ADME
Procedure: as §1

T3 sequence (P05182 whole entry): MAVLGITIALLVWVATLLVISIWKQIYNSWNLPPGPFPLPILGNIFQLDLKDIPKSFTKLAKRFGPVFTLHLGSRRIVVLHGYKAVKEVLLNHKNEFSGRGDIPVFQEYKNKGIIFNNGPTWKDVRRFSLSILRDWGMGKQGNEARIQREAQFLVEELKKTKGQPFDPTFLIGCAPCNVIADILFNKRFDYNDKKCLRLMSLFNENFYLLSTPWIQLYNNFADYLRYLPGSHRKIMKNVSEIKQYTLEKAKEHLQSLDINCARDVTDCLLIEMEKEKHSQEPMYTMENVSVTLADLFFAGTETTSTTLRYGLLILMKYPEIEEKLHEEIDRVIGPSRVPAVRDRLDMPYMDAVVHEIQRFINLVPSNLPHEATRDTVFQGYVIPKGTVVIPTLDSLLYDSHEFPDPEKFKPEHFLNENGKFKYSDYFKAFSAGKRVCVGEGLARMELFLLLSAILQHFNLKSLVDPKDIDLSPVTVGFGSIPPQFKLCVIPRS

C=CC(=O)N1CCC(Oc2cc3c(Nc4ccc(Cl)c(Cl)c4F)ncnc3cc2OC)CC1 [Poziotinib]
common adverse reactions [1]: rash, diarrhea, and itching | effect on cyp2c11 activity in rats (cyp2c11 [2]): significantly inhibitory effect | effect on cyp2d1 activity in rats (cyp2d1 [3]): no obvious inhibitory effect | time- and concentration-dependent inhibition of cyp2c11 (cyp2c11 [4]; pre-incubation 0, 5, 10, 20 min, poziotinib 5-40 μM): no time- or concentration-dependent inhibitory effects | reversibility of inhibition of cyp2c11 (cyp2c11 [4]; pre-incubation 0, 5, 10, 20 min with NADPH): reversible | inhibitory effect on cyp2e1 (in words) (cyp2e1 [5]): did not show any obvious inhibitory effect | IC50 (cyp2e1 [5]; 40 μM chlorzoxazone, cocktail, 30 min): 156 µM | inhibitory effect on cyp2e1 (in words) (cyp2e1 [5]; listed as poziotinib): not obvious | enzymes producing main metabolites M1 (dihydroxylation) and M2 (demethylation) (CYP3A4 and CYP2D6): mainly produced by CYP3A4 and CYP2D6 activity | effect on cyp2e1 activity in rats (cyp2e1 [6]): induced cyp2e1 activity | inhibitory effect on cyp2d1 (in words) (cyp2d1 [7]): weak inhibition | inhibitory effect on cyp2d1 (in words) (cyp2d1 [7]; listed as poziotinib): not obvious | IC50 at 30 min (cyp2d1 [7]; pH 7.4, probe dextromethorphan (10 μM), 10 μM dextromethorphan, cocktail, 30 min): 62 µM
